Reference: US5264441A, “Disubstituted ureas and thioureas derivatives” (Farmitalia Carlo Erba S.r.l., priority 1991, dated 1993)

Tests used:
[1] = molecular target: T1, acyl CoA:cholesterol acyltransferase (ACAT-EC 2.3.1.26) (Oryctolagus cuniculus, UniProt A0A5F9CPP4); test: Inhibition of ACAT activity in microsomal preparations from atherosclerotic rabbit thoracic aorta; assay type: biochemical; conditions: microsomes from atherosclerotic rabbit thoracic aorta; read-out: IC50 values for the inhibition activity in microsomes from atherosclerotic rabbit thoracic aortae
T1 construct: microsomal preparations from atherosclerotic rabbit thoracic aorta; from tissue; host or cells: microsomes of atherosclerotic rabbit thoracic aorta
T1 sequence (A0A5F9CPP4 1-555): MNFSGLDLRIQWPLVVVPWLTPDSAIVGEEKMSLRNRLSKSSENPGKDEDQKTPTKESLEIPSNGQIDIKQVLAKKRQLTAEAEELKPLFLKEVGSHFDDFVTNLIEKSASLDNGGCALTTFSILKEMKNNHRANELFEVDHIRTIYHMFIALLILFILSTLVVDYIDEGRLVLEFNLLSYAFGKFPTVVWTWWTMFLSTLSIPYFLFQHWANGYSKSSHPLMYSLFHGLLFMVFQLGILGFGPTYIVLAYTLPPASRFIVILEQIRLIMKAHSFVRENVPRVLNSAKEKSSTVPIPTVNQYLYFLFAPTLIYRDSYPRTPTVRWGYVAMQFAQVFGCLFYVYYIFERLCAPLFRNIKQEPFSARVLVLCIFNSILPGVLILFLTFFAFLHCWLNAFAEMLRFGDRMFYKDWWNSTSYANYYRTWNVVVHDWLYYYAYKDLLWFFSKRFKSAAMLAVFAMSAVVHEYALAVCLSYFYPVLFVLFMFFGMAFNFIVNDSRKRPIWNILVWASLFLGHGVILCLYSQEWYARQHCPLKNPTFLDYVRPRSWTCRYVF

[2] = Hypolipidaemic activity in Sprague-Dawley rats fed a 1.5% cholesterol-enriched diet for a week; assay type: in vivo; conditions: for Blood Total Cholesterol, Treating, Mean ± SE / Blood Total Cholesterol, % Change: 1 mg/kg/day, rats fed […] cholesterol-enriched diet for a week; for Blood Total Cholesterol, Treating, Mean ± SE: n = 9, * p ≤ 0.01 (Dunnett's test); for Blood Total Cholesterol, % Change: treating vs control
Experimental: Moreover, the compounds of the invention are useful as antidyslipidaemic agents, indeed they show a high activity in lowering total serum cholesterol and triglycerides. […] Table II exemplifies the results obtained by testing the hypolipidaemic activity of a representative group of compounds of the invention administered at the dose of 1 mg/kg/day to Sprague-Dawley rats fed 1.5% cholesterol-enriched diet for a week.
Hypocholesterolaemic activity of FCE compounds given at
1 mg/kg/day to rats fed 1.5% cholesterol-enriched diet

[3] = Liver cholesterol accumulation in albino mice fed a 1.5% cholesterol-enriched diet for seven hours; assay type: in vivo; conditions: acute oral dose of 10 mg/kg
[4] = Hypolipidaemic activity in Sprague-Dawley rats fed a 1.5% cholesterol-enriched diet for a week; assay type: in vivo; conditions: Rattus norvegicus, 168 h, 1.5% cholesterol-enriched chow for a week, compound added to the diet
[5] = Hypolipidaemic effect in New Zealand White rabbits fed a 1% cholesterol-enriched diet for 30 days; assay type: in vivo; conditions: compound added to the diet; for ED50: Oryctolagus cuniculus, 720 h
[6] = liver, read-out: ED50 for the cholesterol lowering effect in liver
[7] = plasma, read-out: ED50 for the cholesterol lowering effect in plasma

Row | Compound | IC50 [1] | Blood Total Cholesterol, Treating, Mean ± SE [2] | Blood Total Cholesterol, % Change [2] | also measured
1 | CCOC(CNC(=O)Nc1c(C(C)C)cccc1C(C)C)(OCC)c1ccccc1 [FCE 27020, N-[2,6-bis(1-methylethyl)phenyl]-N'-(2,2-diethoxy-2-phenyl) ethylurea] | 7.47 nM |  |  | 
2 | CC(C)c1cccc(C(C)C)c1NC(=O)NCC1(c2ccccc2)OC(C)C(C)O1 (stereo not drawn) [FCE 27050, N-[2,6-bis(1-methylethyl)phenyl]-N'-[(2RS,4RS,5RS)-4,5-dimethyl-2-phenyldioxolan-2-yl]methylurea] |  | 62 ± 5 mg/dL | -60% | hypolipidaemic effect ([2]; Sprague-Dawley rats, […] cholesterol-enriched chow for a week, compound added to the diet): remarkable hypolipidaemic effect; accumulation of cholesterol in the liver [3]: prevented in a significative fashion the accumulation of cholesterol in the liver; ED50 [4, 6]: 0.51 mg/kg; ED50 [4, 7]: 0.83 mg/kg; ED50 [5, 6]: 0.16 mg/kg; ED50 [5, 7]: 0.19 mg/kg; accumulation of cholesterol in the liver [5]: prevented the accumulation of cholesterol in the liver; hypolipidaemic effect [5]: potent hypolipidaemic effect
3 | CC(C)c1cccc(C(C)C)c1NC(=O)NCC1(C2CCCCC2)OCC(C)(C)CO1 [FCE 27356, N-[2,6-bis(1-methylethyl)phenyl]-N'-(2-cyclohexyl-5,5-dimethyl-1,3-dioxan-2-yl)methylurea] | 6.5 nM |  |  | 
4 | CC(C)c1cccc(C(C)C)c1NC(=O)NCC1(C2CCCCC2)O[C@@H](C)[C@H](C)O1 [FCE 27480, N-[2,6-bis(1-methylethyl)phenyl]-N'-[(4S, 5S)-2-cyclohexyl-4,5-dimethyldioxolan-2-yl]methylurea] |  | 85 ± 9 mg/dL | -46% | 
5 | CC(C)c1cccc(C(C)C)c1NC(=O)NCC1(c2ccccc2)O[C@H](C)[C@@H](C)O1 [FCE 27529, N-[2,6-bis(1-methylethyl)phenyl]-N'-[(4R,5R)-4,5-dimethyl-2-phenyldioxolan-2-yl]methylurea] |  | 75 ± 4 mg/dL | -62% | 
6 | CC(C)c1cccc(C(C)C)c1NC(=O)NCC1(c2ccc(N(C)C)cc2)OCC(C)(C)CO1 [FCE 27607, N-[2,6-bis(1-methylethyl)phenyl]-N'-[2-(4-dimethylaminophenyl)-5,5-dimethyl-1,3-dioxan-2-yl]methylurea] |  | 110 ± 8 mg/dL | -48% | 
7 | CC(C)c1cccc(C(C)C)c1NC(=O)NCC1(C2CCCCC2)SCCS1 [FCE 27612, N-[2,6-bis(1-methylethyl)phenyl]-N'-(2-cyclohexyl-1,3-dithiolan-2-yl)methylurea] | 9.5 nM | 59 ± 7 mg/dL | -72% | 
